Results from ChEMBL document CHEMBL1156717, “Synthesis and biological evaluation of pyrazoline analogues with beta-amino acyl group as dipeptidyl peptidase IV inhibitors” (Eur J Med Chem, 2008).

Molecular target: CYP3A4 (Homo sapiens, UniProt P08684)
Experiment: Inhibition of CYP3A4 at 10 uM by fluorimetry assay in presence of NADP; values are per cent of control

Sequence of CYP3A4 (P08684 whole entry): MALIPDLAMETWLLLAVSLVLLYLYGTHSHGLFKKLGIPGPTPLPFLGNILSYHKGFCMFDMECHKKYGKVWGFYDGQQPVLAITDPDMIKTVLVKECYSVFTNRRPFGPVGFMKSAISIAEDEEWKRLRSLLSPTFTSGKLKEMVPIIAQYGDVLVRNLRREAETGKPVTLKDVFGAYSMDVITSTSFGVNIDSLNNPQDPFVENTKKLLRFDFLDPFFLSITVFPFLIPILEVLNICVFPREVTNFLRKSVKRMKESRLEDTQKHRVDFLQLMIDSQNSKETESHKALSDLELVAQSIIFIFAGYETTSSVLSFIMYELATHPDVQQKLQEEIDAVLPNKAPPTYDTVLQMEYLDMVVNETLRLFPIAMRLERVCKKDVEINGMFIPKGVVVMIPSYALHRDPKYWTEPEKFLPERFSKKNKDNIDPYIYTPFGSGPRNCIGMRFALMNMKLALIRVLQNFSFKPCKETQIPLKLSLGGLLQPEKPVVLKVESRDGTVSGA

Structure (SMILES)	residual activity at 10 µM [%]
CCOC(=O)COc1ccc(NC(=O)C2CC=NN2C(=O)C[C@H](N)Cc2cc(F)c(F)cc2F)cc1 (stereo not given in full)	6.9
N[C@@H](CC(=O)N1N=CCC1C(=O)Nc1ccc(OCC(=O)O)cc1)Cc1cc(F)c(F)cc1F (stereo not given in full)	59.3

Further lines, results first:

residual activity at 10 µM [%]	Structure (SMILES)
18.8	N[C@@H](CC(=O)N1N=CCC1C(=O)NCc1ccccc1)Cc1cc(F)c(F)cc1F (stereo not given in full)
62	N[C@@H](CC(=O)N1N=CCC1C(=O)NCc1ccc(C(=O)O)cc1)Cc1cc(F)c(F)cc1F (stereo not given in full)
4.5	Nc1ccc(CNC(=O)C2CC=NN2C(=O)C[C@H](N)Cc2cc(F)c(F)cc2F)cc1 (stereo not given in full)
